US10538555B2, “Macrocyclic inhibitors of the PD-1/PD-L1 and CD80(B7-1)/PD-L1 protein/protein interactions” (BRISTOL-MYERS SQUIBB COMPANY, priority 2014, dated 2020)
Like-named read-outs stand apart in the source and are kept apart here. Where a SMILES comes first, the peptide text is derived from it. Bridges are numbered along the chain shown (N, C = ends). [ ]: non-standard residue; d: D form. ξ: configuration not given here. Trp(1-CH2COOH) = N[C@@H](Cc1cn(CC(=O)O)c2ccccc12)C(=O)O; Phe(3,4,5-F3) = N[C@@H](Cc1cc(F)c(F)c(F)c1)C(=O)O; Phe(3,4-F2) = N[C@@H](Cc1ccc(F)c(F)c1)C(=O)O; NMePhe(4-F) = CN[C@@H](Cc1ccc(F)cc1)C(=O)O; Phe(4-Cl) = N[C@@H](Cc1ccc(Cl)cc1)C(=O)O; Phe(4-F) = N[C@@H](Cc1ccc(F)cc1)C(=O)O; d(cisHyp) = O=C(O)[C@H]1C[C@@H](O)CN1; Bta = N[C@@H](Cc1csc2ccccc12)C(=O)O; Hyp = O=C(O)[C@@H]1C[C@@H](O)CN1; NMeF = CN[C@@H](Cc1ccccc1)C(=O)O; dHyp = O=C(O)[C@H]1C[C@H](O)CN1; NMehSer = CN[C@@H](CCO)C(=O)O; NMeNle = CCCC[C@H](NC)C(=O)O; NMeV = CN[C@H](C(=O)O)C(C)C; Pip = O=C(O)[C@@H]1CCCCN1; dPip = O=C(O)[C@H]1CCCCN1; hSer = N[C@@H](CCO)C(=O)O; NMeA = CN[C@@H](C)C(=O)O; Orn = NCCC[C@H](N)C(=O)O; Dab = NCC[C@H](N)C(=O)O; Dap = NC[C@H](N)C(=O)O; ξC = NC(CS)C(=O)O

Biological target: T1, Human PD-L1/PD-1 (Homo sapiens, UniProt Q9NZQ7)
T1 construct: TVMV protease cleavage site (C); made in house; host or cells: HEK293T cells
Test: HTRF Human PD-L1/PD-1 binding assay (PD-1-Ig/PD-L1-His)
Details: PD-L1-His 10 nM, PD-1-Ig 20 nM
How it was run: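 Compound preincubated 15 min with PD-L1-His (10 nM final), then PD-1-Ig (20 nM final) added for 15 min in dPBS with 0.1% BSA and 0.05% Tween-20. Detection by Eu-cryptate anti-Ig (1 nM) and APC anti-His (20 nM) after 30 min; 665/620 nm HTRF ratio. Proteins expressed in HEK293T.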

[1] = class symbol, read-out: HTRF Human PD-L1/PD-1 Binding Assay IC50 Range

T1 sequence (Q9NZQ7 with tags, fused parts or gaps): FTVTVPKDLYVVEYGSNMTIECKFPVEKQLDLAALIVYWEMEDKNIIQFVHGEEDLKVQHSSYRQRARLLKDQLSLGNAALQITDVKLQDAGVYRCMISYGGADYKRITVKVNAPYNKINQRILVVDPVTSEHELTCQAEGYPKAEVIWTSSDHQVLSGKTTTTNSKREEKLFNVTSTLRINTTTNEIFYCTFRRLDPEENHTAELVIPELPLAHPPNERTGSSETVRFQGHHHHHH

SMILES	IC50 [1]	IC50 (read-out: HTRF Human PD-L1/PD-1 Binding Assay IC50)
CCCC[C@H]1C(=O)N2C[C@@H](O)C[C@@H]2C(=O)N[C@@H](CC(=O)O)C(=O)N[C@@H](C(C)C)C(=O)N(C)[C@@H](Cc2ccc(F)cc2)C(=O)N[C@@H](CCCN)C(=O)N2CCC[C@@H]2C(=O)N[C@@H](Cc2c[nH]c3ccccc23)C(=O)N[C@@H](Cc2ccc(O)cc2)C(=O)N[C@@H](CCCN)C(=O)N[C@H](C(=O)NCC(N)=O)CSCC(=O)N[C@@H](Cc2cc(F)c(F)c(F)c2)C(=O)N(C)[C@@H](Cc2ccccc2)C(=O)N1C [Example 10120] ({CH2CO}-[Phe(3,4,5-F3)][NMeF][NMeNle][dHyp]DV[NMePhe(4-F)][Orn][dP]WY[Orn]CG-NH2; thioether N-13)	1 to 9.9 nM	
CCCC[C@H]1C(=O)N2C[C@@H](O)C[C@@H]2C(=O)N[C@@H](CC(=O)O)C(=O)N[C@@H](C(C)C)C(=O)N(C)[C@@H](Cc2ccc(F)cc2)C(=O)N[C@@H](CCCN)C(=O)N2CCC[C@@H]2C(=O)N[C@@H](Cc2c[nH]c3ccccc23)C(=O)N[C@@H](Cc2ccc(O)cc2)C(=O)N[C@@H](CC(C)C)C(=O)N[C@H](C(=O)NCC(N)=O)CSCC(=O)N[C@@H](Cc2cc(F)c(F)c(F)c2)C(=O)N(C)[C@@H](Cc2ccccc2)C(=O)N1C [Example 10118] ({CH2CO}-[Phe(3,4,5-F3)][NMeF][NMeNle][dHyp]DV[NMePhe(4-F)][Orn][dP]WYLCG-NH2; thioether N-13)	1 to 9.9 nM	
CCCC[C@H]1C(=O)N(C)[C@@H](CCCC)C(=O)N[C@@H](CCCNC(=N)N)C(=O)NC(C(=O)NCC(N)=O)CSCC(=O)N[C@@H](Cc2ccc(O)cc2)C(=O)N(C)[C@@H](C)C(=O)N[C@@H](CC(N)=O)C(=O)N2CCC[C@H]2C(=O)N[C@@H](CO)C(=O)N[C@@H](CCO)C(=O)N2CCC[C@H]2C(=O)N[C@@H](Cc2c[nH]c3ccccc23)C(=O)N[C@@H](CO)C(=O)N[C@@H](Cc2csc3ccccc23)C(=O)N1C (stereo partly drawn) [Example 10025] ({CH2CO}-Y[NMeA]NPS[hSer]PWS[Bta][NMeNle][NMeNle]R[ξC]G-NH2; thioether N-14)	1 to 9.9 nM	
CCCC[C@H]1C(=O)N(C)[C@@H](CCCC)C(=O)N[C@@H](CC(C)C)C(=O)N[C@H](C(=O)NCC(N)=O)CSCC(=O)N[C@@H](Cc2ccc(O)cc2)C(=O)N(C)[C@@H](C)C(=O)N[C@@H](CC(N)=O)C(=O)N2CCC[C@H]2C(=O)N[C@@H](Cc2c[nH]cn2)C(=O)N[C@@H](CCC(=O)O)C(=O)N2C[C@H](O)C[C@H]2C(=O)N[C@@H](Cc2c[nH]c3ccccc23)C(=O)N[C@H](C)C(=O)N[C@@H](Cc2csc3ccccc23)C(=O)N1C [Example 5169] ({CH2CO}-Y[NMeA]NPHE[Hyp]W[dA][Bta][NMeNle][NMeNle]LCG-NH2; thioether N-14)	1 to 9.9 nM	
CCCC[C@H]1C(=O)N(C)[C@@H](CCOC)C(=O)N[C@@H](CC(C)C)C(=O)N[C@H](C(=O)NCC(N)=O)CSCC(=O)N[C@@H](Cc2ccc(O)cc2)C(=O)N(C)[C@@H](C)C(=O)N[C@@H](CCN)C(=O)N2CCC[C@H]2C(=O)N[C@@H](Cc2c[nH]cn2)C(=O)N[C@@H](CCC(=O)O)C(=O)N2C[C@H](O)C[C@H]2C(=O)N[C@@H](Cc2c[nH]c3ccccc23)C(=O)N[C@@H](CO)C(=O)N[C@@H](Cc2c[nH]c3ccccc23)C(=O)N1C [Example 10146] ({CH2CO}-Y[NMeA][Dab]PHE[Hyp]WSW[NMeNle][NMehSer](Me)LCG-NH2; thioether N-14)	10 to 99.9 nM	
CCCC[C@H]1C(=O)N(C)[C@@H](CCCC)C(=O)N[C@@H](C)C(=O)N[C@H](C(=O)NCC(N)=O)CSCC(=O)N[C@@H](Cc2ccc(O)cc2)C(=O)N2CCCC[C@H]2C(=O)N[C@@H](CC(=O)O)C(=O)N2CCC[C@H]2C(=O)N[C@@H](CN)C(=O)N[C@@H](CCC(=O)O)C(=O)N2C[C@H](O)C[C@H]2C(=O)N[C@@H](Cc2c[nH]c3ccccc23)C(=O)N[C@@H](CO)C(=O)N[C@@H](Cc2c[nH]c3ccccc23)C(=O)N1C [Example 1258] ({CH2CO}-Y[Pip]DP[Dap]E[Hyp]WSW[NMeNle][NMeNle]ACG-NH2; thioether N-14)	1 to 9.9 nM	
CCCC[C@H]1C(=O)N2C[C@H](O)C[C@@H]2C(=O)N[C@@H](CC(=O)O)C(=O)N[C@@H](C(C)C)C(=O)N(C)[C@@H](Cc2ccccc2)C(=O)N[C@@H](CCC(N)=O)C(=O)N2C[C@H](O)C[C@@H]2C(=O)N[C@@H](Cc2c[nH]c3ccccc23)C(=O)N[C@@H](Cc2ccc(O)cc2)C(=O)N[C@@H](CCN)C(=O)N[C@H](C(=O)NCC(N)=O)CSCC(=O)N[C@@H](Cc2cc(F)c(F)c(F)c2)C(=O)N(C)[C@@H](Cc2ccccc2)C(=O)N1C [Example 9355] ({CH2CO}-[Phe(3,4,5-F3)][NMeF][NMeNle][d(cisHyp)]DV[NMeF]Q[d(cisHyp)]WY[Dab]CG-NH2; thioether N-13)	1 to 9.9 nM	
CCCC[C@H]1C(=O)N(C)[C@@H](CCCC)C(=O)N[C@@H](CCCNC(=N)N)C(=O)N[C@H](C(=O)NCC(N)=O)CSCC(=O)N[C@@H](Cc2ccc(Cl)cc2)C(=O)N(C)[C@@H](C)C(=O)N[C@@H](CC(N)=O)C(=O)N2CCC[C@H]2C(=O)N[C@@H](Cc2cnc[nH]2)C(=O)N[C@@H](CCC(=O)O)C(=O)N2C[C@H](O)C[C@H]2C(=O)N[C@@H](Cc2c[nH]c3ccccc23)C(=O)N[C@@H](CO)C(=O)N[C@@H](Cc2c[nH]c3ccccc23)C(=O)N1C [Example 7080] ({CH2CO}-[Phe(4-Cl)][NMeA]NPHE[Hyp]WSW[NMeNle][NMeNle]RCG-NH2; thioether N-14)	10 to 99.9 nM	
CCCC[C@H]1C(=O)N2C[C@@H](O)C[C@@H]2C(=O)N[C@@H](CC(=O)O)C(=O)N[C@@H](C(C)C)C(=O)N(C)[C@@H](Cc2ccccc2)C(=O)N[C@@H](CCC(=O)O)C(=O)N2C[C@@H](O)C[C@@H]2C(=O)N[C@@H](Cc2c[nH]c3ccccc23)C(=O)N[C@@H](Cc2ccc(O)cc2)C(=O)N[C@@H](CC(C)C)C(=O)N[C@H](C(=O)NCC(N)=O)CSCC(=O)N[C@@H](Cc2ccc(F)c(F)c2)C(=O)N(C)[C@@H](Cc2ccccc2)C(=O)N1C [Example 9277] ({CH2CO}-[Phe(3,4-F2)][NMeF][NMeNle][dHyp]DV[NMeF]E[dHyp]WYLCG-NH2; thioether N-13)	1 to 9.9 nM	
CCCC[C@H]1C(=O)N(C)[C@@H](CCCC)C(=O)N[C@@H](CCCNC(=N)N)C(=O)NC(C(=O)NCC(N)=O)CSCC(=O)N[C@@H](Cc2ccc(O)cc2)C(=O)N(C)[C@@H](C)C(=O)N[C@@H](CC(N)=O)C(=O)N2CCC[C@H]2C(=O)N[C@@H](CO)C(=O)N[C@@H](CCO)C(=O)N2CCC[C@H]2C(=O)N[C@@H](Cc2c[nH]c3ccccc23)C(=O)N[C@@H](CO)C(=O)N[C@@H](Cc2csc3ccccc23)C(=O)N1C (stereo partly drawn) [Example 10049] ({CH2CO}-Y[NMeA]NPS[hSer]PWS[Bta][NMeNle][NMeNle]R[ξC]G-NH2; thioether N-14)	1 to 9.9 nM	
CCCC[C@H]1C(=O)N2C[C@H](O)C[C@@H]2C(=O)N[C@@H](CC(=O)O)C(=O)N[C@@H](C(C)C)C(=O)N(C)[C@@H](Cc2ccccc2)C(=O)N[C@@H](CCCCN)C(=O)N2C[C@H](O)C[C@@H]2C(=O)N[C@@H](Cc2c[nH]c3ccccc23)C(=O)N[C@@H](Cc2ccc(O)cc2)C(=O)N[C@@H](CCCN)C(=O)N[C@H](C(=O)NCC(N)=O)CSCC(=O)N[C@@H](Cc2ccc(F)c(F)c2)C(=O)N(C)[C@@H](Cc2ccccc2)C(=O)N1C [Example 9306] ({CH2CO}-[Phe(3,4-F2)][NMeF][NMeNle][d(cisHyp)]DV[NMeF]K[d(cisHyp)]WY[Orn]CG-NH2; thioether N-13)	1 to 9.9 nM	
CCCC[C@H]1C(=O)N(C)[C@@H](C)C(=O)N[C@@H](CCCNC(=N)N)C(=O)NC(C(=O)NCC(N)=O)CSCC(=O)N[C@@H](Cc2ccc(O)cc2)C(=O)N(C)[C@@H](C)C(=O)N[C@@H](CC(N)=O)C(=O)N2CCC[C@H]2C(=O)N[C@@H](Cc2cnc[nH]2)C(=O)N[C@H](CO)C(=O)N2CCC[C@H]2C(=O)N[C@@H](Cc2c[nH]c3ccccc23)C(=O)N[C@@H](CO)C(=O)N[C@@H](Cc2csc3ccccc23)C(=O)N1C (stereo partly drawn) [Example 9118] ({CH2CO}-Y[NMeA]NPH[dS]PWS[Bta][NMeNle][NMeA]R[ξC]G-NH2; thioether N-14)		27 nM
CCCC[C@H]1C(=O)N2CCC[C@@H]2C(=O)N[C@@H](CC(=O)O)C(=O)N[C@@H](C(C)C)C(=O)N(C)[C@@H](C(C)C)C(=O)N[C@@H](CCC(N)=O)C(=O)N2CCCC[C@@H]2C(=O)N[C@@H](Cc2c[nH]c3ccccc23)C(=O)N[C@@H](Cc2ccc(O)cc2)C(=O)N[C@@H](CC(C)C)C(=O)N[C@H](C(=O)NCC(N)=O)CSCC(=O)N[C@@H](Cc2ccc(F)cc2)C(=O)N(C)[C@@H](Cc2ccccc2)C(=O)N1C [Example 9246] ({CH2CO}-[Phe(4-F)][NMeF][NMeNle][dP]DV[NMeV]Q[dPip]WYLCG-NH2; thioether N-13)	1000 to 10000 nM	
CCCC[C@H]1C(=O)N(C)[C@@H](CCCC)C(=O)N[C@@H](CN)C(=O)N[C@H](C(=O)NCC(N)=O)CSCC(=O)N[C@@H](Cc2ccc(O)cc2)C(=O)N(C)[C@@H](C)C(=O)N[C@@H](CC(=O)O)C(=O)N2CCC[C@H]2C(=O)N[C@@H](Cc2cnc[nH]2)C(=O)N[C@@H](CCC(N)=O)C(=O)N2C[C@H](O)C[C@H]2C(=O)N[C@@H](Cc2c[nH]c3ccccc23)C(=O)N[C@@H](CCN)C(=O)N[C@@H](Cc2cn(CC(=O)O)c3ccccc23)C(=O)N1C [Example 5238] ({CH2CO}-Y[NMeA]DPHQ[Hyp]W[Dab][Trp(1-CH2COOH)][NMeNle][NMeNle][Dap]CG-NH2; thioether N-14)	1 to 9.9 nM	
CCCC[C@H]1C(=O)N(C)[C@@H](CCCC)C(=O)N[C@@H](CC(C)C)C(=O)NC(C(=O)NCC(N)=O)CSCC(=O)N[C@@H](Cc2ccc(O)cc2)C(=O)N(C)[C@@H](C)C(=O)N[C@@H](CC(N)=O)C(=O)N2CCC[C@H]2C(=O)N[C@@H](CC(N)=O)C(=O)N[C@@H](CC(C)C)C(=O)N2CCC[C@H]2C(=O)N[C@@H](Cc2csc3ccccc23)C(=O)N[C@@H](CO)C(=O)N[C@@H](Cc2c[nH]c3ccccc23)C(=O)N1C (stereo partly drawn) [Example 9160] ({CH2CO}-Y[NMeA]NPNLP[Bta]SW[NMeNle][NMeNle]L[ξC]G-NH2; thioether N-14)	10 to 99.9 nM	
